Measured values published in US10538567B2, “Compounds as peptidic trigonal GLP1/glucagon/GIP receptor agonists” (priority 2016, dated 2020).
Numbered stars: 1 amine (or outer) side, 2 acyl side, 3 side chain; on linkers, the order of the positions; unused ones are H or OH. Square brackets hold non-standard residues; d marks the D form. Side chains are listed from the residue outwards. Peptide text beside a SMILES is read from it. * marks the point of attachment. γGlu = O=C(O)[C@H](CCC(=O)[*:2])N[*:1]; Palmitoyl = CCCCCCCCCCCCCCCC(=O)*; Aib = CC(C)(N)C(=O)O

Key:
[1] = tested on: female diabetic db/db mice; test: Acute effects after s.c. treatment on blood glucose in non-fasting female diabetic db/db mice; format: in vivo; conditions: single 30 μg/kg s.c.
Method: Female healthy, lean BKS.Cg-(lean)/OlaHsd and diabetes-prone, obese BKS.Cg-+Lepr^db/+Lepr^db/OlaHsd mice were ordered group housed from Envigo RMS Inc., shipped group housed and remained group housed in shoebox caging with wood chip bedding until day 15 of the predose phase. At the study start mice were approximately 12 weeks old.
Mice were housed under vivarium conditions including a 12 h light/dark cycle (light phase 04:00 AM-4:00 PM), room temperatures between 23-26° C. and a relative humidity between 30-70%. All animals had free access to water and Purina Fomulab Diet 5008.
On predose day 9 blood glucose and body mass (approximately between 08:00-10:00 AM) as well as HbA1c measurements were performed. On day 15 of the predose phase animals were assigned to treatment groups (n=8) and to new cages to match mean HbA1c and body masses between all db/db groups. An age-matched lean group was included in the study as a healthy, lean reference.
Prior to day 1 of the dosing phase, the test article was diluted with Phosphate Buffered Saline (PBS, Gibco, without CaCl2 and MgCl2) to a concentration of 1 mg/mL and aliquots of this stock solution were stored at approximately ≤−60° C. On day 1 of the dosing phase the stock aliquot was thawed and the injected test article solution was prepared fresh by diluting it with PBS to achieve the desired concentration.
On Day 1 of the dosing phase db/db mice were either treated once with a s.c. injection of PBS-vehicle or 30 μg/kg test article. The lean reference group was treated once with a s.c. injection of PBS-vehicle. The dosing was initiated and completed between 08:00 and 10:00 AM. The applied volume was 5 ml/kg and the dose was adjusted to the most recent body mass recording of each individual.
Animals had unlimited access to water and feed during the experiment. On day 1 of the dosing phase approximately 5 μL of blood were collected via tail clips at minute −30 and 0 prior to any other inlife activities. At minute 0 mice received a s.c. dose of either PBS-vehicle or 30 μg/kg test article. Further blood samples were harvested at hour 0.25, 0.5, 1, 1.5, 2, 3, 4, 6, 8, and 24 post-dose. Glucose measurements were performed in whole blood using AlphaTRAK glucometers. If the glucose concentrations of two measurements differed by more than 20 mg/dL a third value was recorded. The Area Under the Curve (AUC) for blood glucose was calculated via the trapezoid method and for the duration of the 24 post-dose hours.
In the Figures data are depicted as means±SEM. […] A One Way Analysis of Variance and multiple comparisons (Dunnett's Method) were performed comparing the group of diabetic, obese db/db vehicle mice (n=8) with each diabetic, obese db/db test article treated mice (n=8). […] Non-diabetic, lean-vehicle group data are depicted in the Figures serving as a reference dataset for the non-obese, non-diabetic state.

[2] = Chemical stability assessment, UPLC-UV purity loss in buffer system A; format: physicochemical; conditions: 1 mg/ml, 25 mM acetate buffer pH 4.5 with m-cresol
How it was run: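 Peptide at 1 mg/mL pure compound (purity-corrected) in 25 mM acetate buffer pH 4.5 with L-methionine, m-cresol and glycerol was sterile-filtered and stored 28 days at 5 and 40° C. UPLC-UV purity (peptide peak area/total area) was compared with the starting value to give relative purity loss in %.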

[3] = Thioflavin T (ThT) assay for physical stability (fibrillation); format: physicochemical; conditions: 3 mg/ml, 100 mM acetate pH 4.5 with m-cresol, 37° C. shaking
How it was run: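 Peptides at 3 mg/ml final with 100 μM ThT final in 100 mM acetate pH 4.5 containing 2.7 mg/mL m-cresol, eight replicates. Stressed at 37° C by repeated cycles of 10 s shaking at 960 rpm and 50 s rest. Fluorescence read every 20 minutes; lag time in hours taken from the sigmoidal kinetic curve.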

| Compound | mean blood glucose concentration 24 hours post-dose relative to baseline [1] | Chemical stability [relative purity loss 28 days 40° C.] (%) at pH 4.5 [2] | Lag time before increase [3] | time to normalise hyperglycemia to the non-fasting blood glucose concentrations of lean reference mice [1] |
| --- | --- | --- | --- | --- |
| CCCCCCCCCCCCCCCC(=O)N[C@@H](CCC(=O)N[C@@H](CCC(=O)NCCCC[C@H](NC(=O)[C@H](CC(C)C)NC(=O)[C@H](CCCCN)NC(=O)[C@H](CO)NC(=O)[C@H](CC(C)C)NC(=O)[C@H](CC(=O)O)NC(=O)[C@H](CO)NC(=O)[C@@H](NC(=O)[C@H](Cc1ccccc1)NC(=O)[C@@H](NC(=O)CNC(=O)[C@H](Cc1c[nH]cn1)NC(=O)C(C)(C)NC(=O)[C@@H](N)Cc1c[nH]cn1)[C@@H](C)O)[C@@H](C)O)C(=O)N[C@@H](CCC(=O)O)C(=O)N[C@@H](CCC(=O)O)C(=O)N[C@@H](CCC(N)=O)C(=O)N[C@@H](CCCNC(=N)N)C(=O)N[C@@H](CCC(N)=O)C(=O)NC(C)(C)C(=O)N[C@@H](CCC(=O)O)C(=O)N[C@@H](Cc1ccccc1)C(=O)N[C@H](C(=O)N[C@@H](CCC(=O)O)C(=O)N[C@@H](Cc1c[nH]c2ccccc12)C(=O)N[C@@H](CC(C)C)C(=O)N[C@@H](CCCCN)C(=O)N[C@@H](C)C(=O)NCC(=O)NCC(=O)N1CCC[C@H]1C(=O)N1CCC[C@H]1C(=O)N[C@@H](CO)C(=O)NC(C)(C)C(=O)N[C@@H](CCCCN)C(=O)N1CCC[C@H]1C(=O)N1CCC[C@H]1C(=O)N1CCC[C@H]1C(=O)N[C@@H](CCCCN)C(N)=O)[C@@H](C)CC)C(=O)O)C(=O)O [SEQ ID NO: 10, H-Aib-H-G-T-F-T-S-D-L-S-K-L-K[gGlu-gGlu-Palm]-E-E-Q-R-Q-Aib-E-F-I-E-W-L-K-A-G-G-P-P-S-Aib-K-P-P-P-K-NH2] | at or close to baseline | 10.6% | >45 h |  |
| CCCCCCCCCCCCCCCC(=O)N[C@@H](CCC(=O)N[C@@H](CCC(=O)NCCCC[C@H](NC(=O)[C@H](CC(C)C)NC(=O)[C@H](CCCCN)NC(=O)[C@H](CO)NC(=O)[C@H](CC(C)C)NC(=O)[C@H](CC(=O)O)NC(=O)[C@H](CO)NC(=O)[C@@H](NC(=O)[C@H](Cc1ccccc1)NC(=O)[C@@H](NC(=O)CNC(=O)[C@H](Cc1c[nH]cn1)NC(=O)C(C)(C)NC(=O)[C@@H](N)Cc1c[nH]cn1)[C@@H](C)O)[C@@H](C)O)C(=O)N[C@@H](CCC(=O)O)C(=O)N[C@@H](CCC(=O)O)C(=O)N[C@@H](CCC(N)=O)C(=O)N[C@@H](CCCNC(=N)N)C(=O)N[C@@H](CCC(N)=O)C(=O)NC(C)(C)C(=O)N[C@@H](CCC(=O)O)C(=O)N[C@@H](Cc1ccccc1)C(=O)N[C@H](C(=O)N[C@@H](CCC(=O)O)C(=O)N[C@@H](Cc1c[nH]c2ccccc12)C(=O)N[C@@H](CC(C)C)C(=O)N[C@@H](CCCCN)C(=O)N[C@@H](C)C(=O)N[C@H](C)C(=O)NCC(=O)N1CCC[C@H]1C(=O)N1CCC[C@H]1C(=O)N[C@@H](CO)C(=O)NC(C)(C)C(=O)N[C@@H](CCCCN)C(=O)N1CCC[C@H]1C(=O)N1CCC[C@H]1C(=O)N1CCC[C@H]1C(=O)N[C@@H](CCCCN)C(N)=O)[C@@H](C)CC)C(=O)O)C(=O)O [SEQ ID NO: 11, H-Aib-H-G-T-F-T-S-D-L-S-K-L-K[gGlu-gGlu-Palm]-E-E-Q-R-Q-Aib-E-F-I-E-W-L-K-A-dAla-G-P-P-S-Aib-K-P-P-P-K-NH2] (H-H[Aib]HGTFTSDLSKLK([γGlu-γGlu-Palmitoyl])EEQRQ[Aib]EFIEWLKA[dA]GPPS[Aib]KPPPK-NH2) | still below baseline concentrations | 8.8% | >45 h | ≤ 6 h |
| CCCCCCCCCCCCCCCC(=O)N[C@@H](CCC(=O)N[C@@H](CCC(=O)NCCCC[C@H](NC(=O)[C@H](CC(C)C)NC(=O)[C@H](CCCCN)NC(=O)[C@H](CO)NC(=O)[C@H](CC(C)C)NC(=O)[C@H](CC(=O)O)NC(=O)[C@H](CO)NC(=O)[C@@H](NC(=O)[C@H](Cc1ccccc1)NC(=O)[C@@H](NC(=O)CNC(=O)[C@H](Cc1c[nH]cn1)NC(=O)C(C)(C)NC(=O)[C@@H](N)Cc1c[nH]cn1)[C@@H](C)O)[C@@H](C)O)C(=O)N[C@@H](CCC(=O)O)C(=O)N[C@@H](CCC(=O)O)C(=O)N[C@@H](CCC(N)=O)C(=O)N[C@@H](CCCNC(=N)N)C(=O)N[C@@H](CCC(N)=O)C(=O)NC(C)(C)C(=O)N[C@@H](CCC(=O)O)C(=O)N[C@@H](Cc1ccccc1)C(=O)N[C@H](C(=O)N[C@@H](CCC(=O)O)C(=O)N[C@@H](Cc1c[nH]c2ccccc12)C(=O)N[C@@H](CC(C)C)C(=O)N[C@@H](CCCCN)C(=O)N[C@@H](C)C(=O)NCC(=O)NCC(=O)N[C@@H](Cc1c[nH]cn1)C(=O)N1CCC[C@H]1C(=O)N[C@@H](CO)C(=O)NC(C)(C)C(=O)N[C@@H](CCCCN)C(=O)N1CCC[C@H]1C(=O)N1CCC[C@H]1C(=O)N1CCC[C@H]1C(=O)N[C@@H](CCCCN)C(N)=O)[C@@H](C)CC)C(=O)O)C(=O)O [SEQ ID NO: 12, H-Aib-H-G-T-F-T-S-D-L-S-K-L-K[gGlu-gGlu-Palm]-E-E-Q-R-Q-Aib-E-F-I-E-W-L-K-A-G-G-H-P-S-Aib-K-P-P-P-K-NH2] | at or close to baseline | 11.9% | >45 h |  |
| CCCCCCCCCCCCCCCC(=O)N[C@@H](CCC(=O)N[C@@H](CCC(=O)NCCCC[C@H](NC(=O)[C@H](CC(C)C)NC(=O)[C@H](CCCCN)NC(=O)[C@H](CO)NC(=O)[C@H](CC(C)C)NC(=O)[C@H](CC(=O)O)NC(=O)[C@H](CO)NC(=O)[C@@H](NC(=O)[C@H](Cc1ccccc1)NC(=O)[C@@H](NC(=O)CNC(=O)[C@H](Cc1c[nH]cn1)NC(=O)C(C)(C)NC(=O)[C@@H](N)Cc1c[nH]cn1)[C@@H](C)O)[C@@H](C)O)C(=O)N[C@@H](CCC(=O)O)C(=O)N[C@@H](CCC(=O)O)C(=O)N[C@@H](CCC(N)=O)C(=O)N[C@@H](CCCNC(=N)N)C(=O)N[C@@H](CCC(N)=O)C(=O)NC(C)(C)C(=O)N[C@@H](CCC(=O)O)C(=O)N[C@@H](Cc1ccccc1)C(=O)N[C@H](C(=O)N[C@@H](CCC(=O)O)C(=O)N[C@@H](Cc1c[nH]c2ccccc12)C(=O)N[C@@H](CC(C)C)C(=O)N[C@@H](CCCCN)C(=O)N[C@@H](C)C(=O)N[C@H](C)C(=O)NCC(=O)N[C@@H](Cc1c[nH]cn1)C(=O)N1CCC[C@H]1C(=O)N[C@@H](CO)C(=O)NC(C)(C)C(=O)N[C@@H](CCCCN)C(=O)N1CCC[C@H]1C(=O)N1CCC[C@H]1C(=O)N1CCC[C@H]1C(=O)N[C@@H](CCCCN)C(N)=O)[C@@H](C)CC)C(=O)O)C(=O)O [SEQ ID NO: 13, H-Aib-H-G-T-F-T-S-D-L-S-K-L-K[gGlu-gGlu-Palm]-E-E-Q-R-Q-Aib-E-F-I-E-W-L-K-A-dAla-G-H-P-S-Aib-K-P-P-P-K-NH2] (H-H[Aib]HGTFTSDLSKLK([γGlu-γGlu-Palmitoyl])EEQRQ[Aib]EFIEWLKA[dA]GHPS[Aib]KPPPK-NH2) | at or close to baseline | 10.5% | >45 h |  |
